Assays:
Human κ-Opioid (KOP) = target: T1, Human κ-Opioid (KOP) (Homo sapiens, UniProt P41145); experiment: Radioligand binding, human κ-opioid (KOP) membranes, filtration, [3H]-Diprenorphine; settings: compound at 10 μM; for A2 radioligand binding inhibition: human κ-opioid (KOP) membranes
T1 construct: purchased Perkin Elmer Biosignal
Procedure, shortened: (§1)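 Percent inhibition of radioligand binding measured on recombinant human membranes: NK1 with [125I]-Substance P, KOP with [3H]-Diprenorphine. Incubation 1 h at room temperature, then harvest onto 0.3% PEI-soaked filters, cold Tris-HCl pH 7.4 washes and scintillation counting; non-specific binding from reference ligand wells.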

[1] = target: T2, Human neuropeptide Y (NPY-Y1) (Homo sapiens, UniProt P25929); experiment: Radioligand binding, human neuropeptide Y NPY-Y1 membranes, FlashPlate, [125I]-PYY; settings: compound at 10 μM; for A9 radioligand binding inhibition: human NPY-Y1 membranes
T2 construct: purchased Perkin Elmer Biosignal
T2 sequence (P25929 1-384): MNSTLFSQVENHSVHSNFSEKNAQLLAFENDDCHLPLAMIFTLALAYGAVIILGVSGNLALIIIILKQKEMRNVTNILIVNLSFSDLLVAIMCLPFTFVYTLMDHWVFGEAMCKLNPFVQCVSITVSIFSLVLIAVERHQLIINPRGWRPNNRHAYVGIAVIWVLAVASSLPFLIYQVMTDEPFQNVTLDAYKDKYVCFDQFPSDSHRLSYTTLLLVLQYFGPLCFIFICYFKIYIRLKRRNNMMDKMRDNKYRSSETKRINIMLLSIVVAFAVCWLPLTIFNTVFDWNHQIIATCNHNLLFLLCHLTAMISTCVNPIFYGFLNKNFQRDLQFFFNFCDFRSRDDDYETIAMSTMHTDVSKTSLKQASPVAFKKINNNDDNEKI
Procedure, shortened: (§2)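 Cloned human receptor membranes were coated onto FlashPlate wells and incubated with radioligand and compound (added from a 0.5 mM DMSO daughter plate) for 1 hour at room temperature in the dark. Scintillation counting gave percent inhibition, with DMSO defining total and reference ligand defining non-specific binding.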

Human opioid (ORL1) = target: T3, Human opioid (ORL1) (Homo sapiens, UniProt P41146); experiment: Radioligand binding, human opioid ORL1 membranes, FlashPlate, [125I]-Nociceptin; settings: compound at 10 μM; for A10 radioligand binding inhibition: human ORL1 membranes
T3 construct: purchased Perkin Elmer Biosignal
Procedure, shortened: as §2

[2] = target: T4, Human melanin-concentrating hormone (MCH1) (Homo sapiens, UniProt Q99705); experiment: Radioligand binding, human melanin-concentrating hormone MCH1 membranes, FlashPlate, [125I]-S36057; settings: compound at 10 μM; for A6 radioligand binding inhibition: human MCH1 membranes
T4 construct: purchased Perkin Elmer Biosignal
Procedure, shortened: as §2

Human δ-opioid (DOP) = target: T5, Human δ-opioid (DOP) (Homo sapiens, UniProt P41143); experiment: Radioligand binding, human δ-opioid (DOP) membranes, FlashPlate, [3H]-Bremazocine; settings: compound at 10 μM; for A1 radioligand binding inhibition: human δ-opioid (DOP) membranes
T5 construct: purchased Perkin Elmer Biosignal
Procedure, shortened: as §2

Mouse urotensin (mUR2) = target: T6, Mouse urotensin (mUR2) (Mus musculus, UniProt Q8VIH9); experiment: Radioligand binding, mouse urotensin mUR2 membranes, FlashPlate, [125I]-Urotensin II; settings: compound at 10 μM; for A11 radioligand binding inhibition: mouse urotensin mUR2 membranes
T6 construct: purchased Perkin Elmer Biosignal
T6 sequence (Q8VIH9 1-385): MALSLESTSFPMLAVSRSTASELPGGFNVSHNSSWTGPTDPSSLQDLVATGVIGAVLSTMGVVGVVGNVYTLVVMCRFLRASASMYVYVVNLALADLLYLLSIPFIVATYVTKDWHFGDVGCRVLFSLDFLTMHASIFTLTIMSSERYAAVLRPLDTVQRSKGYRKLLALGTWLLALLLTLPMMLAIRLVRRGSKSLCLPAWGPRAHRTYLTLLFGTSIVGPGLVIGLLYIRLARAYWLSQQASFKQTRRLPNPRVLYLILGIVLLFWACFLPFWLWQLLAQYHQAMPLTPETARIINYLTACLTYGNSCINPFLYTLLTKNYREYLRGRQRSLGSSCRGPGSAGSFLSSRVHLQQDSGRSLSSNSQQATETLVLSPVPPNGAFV
Procedure, shortened: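 Cloned mouse urotensin (mUR2) receptor membranes from Perkin Elmer Biosignal were immobilized in FlashPlate microplates using a proprietary coating. Each well got 19.5 μl buffer, then 0.5 μl of DMSO, reference ligand, or compound. Adding 5 μl of [125I]-Urotensin II, diluted to 5× final concentration in binding buffer, started binding. Plates were sealed with TopSeal-A and incubated 1 hour at room temperature in the dark. Wells were counted for 30 seconds each on a TopCount after a 60-second delay, and percentage inhibition was calculated.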

Human melanocortin (MC5) = target: T7, Human melanocortin (MC5) (Homo sapiens, UniProt P33032); experiment: Radioligand binding, human melanocortin MC5 membranes, FlashPlate, [125I]-NDP-αMSH; settings: compound at 10 μM; for A5 radioligand binding inhibition: human melanocortin MC5 membranes
T7 construct: purchased Perkin Elmer Biosignal
Procedure, shortened: as §2

Human μ-opioid (MOP) = target: T8, Human μ-opioid (MOP) (Homo sapiens, UniProt P35372); experiment: Radioligand binding, human μ-opioid (MOP) membranes, FlashPlate, [3H]-Naloxone; settings: compound at 10 μM; for A7 radioligand binding inhibition: human μ-opioid (MOP) membranes
T8 construct: purchased Perkin Elmer Biosignal
Procedure, shortened: as §2

Human Melanocortin (MC3) = target: T9, Human Melanocortin (MC3) (Homo sapiens, UniProt P41968); experiment: Radioligand binding, human melanocortin MC3 membranes, FlashPlate, [125I]-NDP-αMSH; settings: compound at 10 μM; for A3 radioligand binding inhibition: human melanocortin MC3 membranes
T9 construct: purchased Perkin Elmer Biosignal
Procedure, shortened: as §2

Human neurokinin (NK1) = target: T10, Human neurokinin (NK1) (Homo sapiens, UniProt P25103); experiment: Radioligand binding, human neurokinin NK1 membranes, filtration, [125I]-Substance P; settings: compound at 10 μM; for A8 radioligand binding inhibition: human neurokinin NK1 membranes
T10 construct: purchased Perkin Elmer Biosignal
Procedure, shortened: as §1

Human Melanocortin (MC4) = target: T11, Human Melanocortin (MC4) (Homo sapiens, UniProt P32245); experiment: Radioligand binding, human melanocortin MC4 membranes, FlashPlate, [125I]-NDP-αMSH; settings: compound at 10 μM; for A4 radioligand binding inhibition: human melanocortin MC4 membranes
T11 construct: purchased Perkin Elmer Biosignal
Procedure, shortened: as §2

T5 sequence (P41143 whole entry): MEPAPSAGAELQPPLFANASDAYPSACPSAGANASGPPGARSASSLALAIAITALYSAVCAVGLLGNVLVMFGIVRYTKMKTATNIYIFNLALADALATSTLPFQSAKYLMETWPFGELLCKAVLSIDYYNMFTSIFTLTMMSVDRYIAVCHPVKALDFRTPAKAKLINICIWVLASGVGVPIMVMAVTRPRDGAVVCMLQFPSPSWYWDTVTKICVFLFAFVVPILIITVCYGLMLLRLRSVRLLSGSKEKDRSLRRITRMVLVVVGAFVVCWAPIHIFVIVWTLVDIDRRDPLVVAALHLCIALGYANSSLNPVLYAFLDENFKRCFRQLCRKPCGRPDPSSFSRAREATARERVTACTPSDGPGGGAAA
T7 sequence (P33032 whole entry): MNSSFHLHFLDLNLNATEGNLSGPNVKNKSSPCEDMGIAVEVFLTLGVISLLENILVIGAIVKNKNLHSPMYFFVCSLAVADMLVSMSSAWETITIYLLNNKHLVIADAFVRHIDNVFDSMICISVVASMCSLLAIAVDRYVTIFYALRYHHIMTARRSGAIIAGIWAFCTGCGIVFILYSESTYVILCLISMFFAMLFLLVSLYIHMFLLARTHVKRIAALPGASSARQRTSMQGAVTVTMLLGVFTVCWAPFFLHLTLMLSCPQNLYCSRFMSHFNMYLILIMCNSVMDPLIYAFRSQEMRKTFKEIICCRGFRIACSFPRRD
T1 sequence (P41145 whole entry): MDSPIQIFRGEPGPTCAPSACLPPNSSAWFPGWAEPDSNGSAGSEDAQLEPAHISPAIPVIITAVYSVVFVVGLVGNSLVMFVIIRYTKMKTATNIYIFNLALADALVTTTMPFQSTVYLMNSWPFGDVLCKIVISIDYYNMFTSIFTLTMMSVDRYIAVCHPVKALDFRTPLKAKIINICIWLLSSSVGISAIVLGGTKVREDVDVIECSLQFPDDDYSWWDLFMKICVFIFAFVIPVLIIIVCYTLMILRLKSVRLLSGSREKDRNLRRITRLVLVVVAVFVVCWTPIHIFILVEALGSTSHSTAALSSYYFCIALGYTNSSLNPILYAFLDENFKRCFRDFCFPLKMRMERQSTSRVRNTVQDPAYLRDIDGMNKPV
T8 sequence (P35372 whole entry): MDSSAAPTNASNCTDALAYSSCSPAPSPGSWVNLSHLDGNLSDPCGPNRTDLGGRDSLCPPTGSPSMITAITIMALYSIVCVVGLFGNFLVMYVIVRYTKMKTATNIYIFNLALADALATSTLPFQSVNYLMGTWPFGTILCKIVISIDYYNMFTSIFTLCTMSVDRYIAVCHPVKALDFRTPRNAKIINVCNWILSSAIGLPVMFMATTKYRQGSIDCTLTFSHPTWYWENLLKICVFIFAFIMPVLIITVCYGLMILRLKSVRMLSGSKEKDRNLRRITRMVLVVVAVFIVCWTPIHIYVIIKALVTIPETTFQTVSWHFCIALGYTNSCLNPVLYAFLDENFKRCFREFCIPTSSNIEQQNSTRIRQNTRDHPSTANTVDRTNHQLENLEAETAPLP
T10 sequence (P25103 whole entry): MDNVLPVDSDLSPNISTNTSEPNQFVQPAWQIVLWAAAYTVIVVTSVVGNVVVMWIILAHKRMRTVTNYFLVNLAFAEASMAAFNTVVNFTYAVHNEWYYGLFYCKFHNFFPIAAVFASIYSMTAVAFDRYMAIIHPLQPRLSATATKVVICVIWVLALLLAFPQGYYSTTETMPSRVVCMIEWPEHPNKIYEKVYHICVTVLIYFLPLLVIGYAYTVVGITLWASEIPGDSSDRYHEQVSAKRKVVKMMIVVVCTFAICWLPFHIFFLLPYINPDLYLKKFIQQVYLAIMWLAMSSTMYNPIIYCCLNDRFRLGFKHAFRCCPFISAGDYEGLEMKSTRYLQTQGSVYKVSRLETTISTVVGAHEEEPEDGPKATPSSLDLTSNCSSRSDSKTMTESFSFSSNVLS
T3 sequence (P41146 whole entry): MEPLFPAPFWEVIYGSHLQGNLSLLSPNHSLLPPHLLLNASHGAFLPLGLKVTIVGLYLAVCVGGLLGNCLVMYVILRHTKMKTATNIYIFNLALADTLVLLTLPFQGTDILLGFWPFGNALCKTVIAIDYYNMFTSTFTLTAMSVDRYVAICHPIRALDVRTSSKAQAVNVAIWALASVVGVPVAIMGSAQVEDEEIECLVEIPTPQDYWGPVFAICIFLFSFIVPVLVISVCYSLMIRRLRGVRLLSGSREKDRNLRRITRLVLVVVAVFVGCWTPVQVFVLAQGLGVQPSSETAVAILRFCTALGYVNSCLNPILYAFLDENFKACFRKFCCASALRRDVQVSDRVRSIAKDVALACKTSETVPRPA
T4 sequence (Q99705 whole entry): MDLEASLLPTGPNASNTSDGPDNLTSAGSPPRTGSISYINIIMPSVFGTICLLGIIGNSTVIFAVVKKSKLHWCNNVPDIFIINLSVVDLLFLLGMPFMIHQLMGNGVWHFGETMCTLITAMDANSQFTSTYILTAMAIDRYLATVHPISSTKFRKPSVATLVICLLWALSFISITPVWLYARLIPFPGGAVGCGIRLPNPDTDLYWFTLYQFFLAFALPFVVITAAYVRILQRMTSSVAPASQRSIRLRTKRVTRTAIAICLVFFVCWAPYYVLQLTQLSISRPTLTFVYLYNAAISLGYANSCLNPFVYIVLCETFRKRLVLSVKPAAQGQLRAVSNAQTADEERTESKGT
T11 sequence (P32245 whole entry): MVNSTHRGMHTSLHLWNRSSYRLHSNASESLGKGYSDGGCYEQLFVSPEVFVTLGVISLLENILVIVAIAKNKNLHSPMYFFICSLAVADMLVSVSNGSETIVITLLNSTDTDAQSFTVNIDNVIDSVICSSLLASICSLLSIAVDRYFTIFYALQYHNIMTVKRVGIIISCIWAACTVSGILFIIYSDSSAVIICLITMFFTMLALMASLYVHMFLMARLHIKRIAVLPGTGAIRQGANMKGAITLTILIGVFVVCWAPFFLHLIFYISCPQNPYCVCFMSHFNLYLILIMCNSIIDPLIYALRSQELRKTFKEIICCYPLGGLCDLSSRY
T9 sequence (P41968 whole entry): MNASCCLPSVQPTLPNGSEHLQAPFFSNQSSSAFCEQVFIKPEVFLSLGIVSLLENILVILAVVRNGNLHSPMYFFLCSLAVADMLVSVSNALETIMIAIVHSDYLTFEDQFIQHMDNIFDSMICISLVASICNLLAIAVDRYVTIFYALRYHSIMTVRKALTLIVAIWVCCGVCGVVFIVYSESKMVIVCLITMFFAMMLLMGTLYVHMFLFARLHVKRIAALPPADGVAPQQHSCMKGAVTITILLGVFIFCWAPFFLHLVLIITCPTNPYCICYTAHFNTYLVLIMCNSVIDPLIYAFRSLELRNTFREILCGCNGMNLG

SMILES: [N-]=[N+]=N[C@H]1C(OCCNC(=N)N)O[C@H](COCc2ccc3ccccc3c2)[C@@H](O)[C@@H]1OCc1ccccc1 (stereo partly shown) [compound 126]
- A2 radioligand binding, percentage inhibition (Human κ-Opioid (KOP); [3H]-Diprenorphine): − (“−” indicates less than 50% inhibition at 10 μM)
- A9 radioligand binding, percentage inhibition ([1]; [125I]-PYY): − (“−” indicates less than 50% inhibition at 10 μM)
- A10 radioligand binding, percentage inhibition (Human opioid (ORL1); [125I]-Nociceptin): − (“−” indicates less than 50% inhibition at 10 μM)
- A6 radioligand binding, percentage inhibition ([2]; [125I]-S36057): + (“+” indicates greater than 50% inhibition at 10 μM)
- A1 radioligand binding, percentage inhibition (Human δ-opioid (DOP); [3H]-Bremazocine): − (“−” indicates less than 50% inhibition at 10 μM)
- A11 radioligand binding, percentage inhibition (Mouse urotensin (mUR2); [125I]-Urotensin II): − (“−” indicates less than 50% inhibition at 10 μM)
- A5 radioligand binding, percentage inhibition (Human melanocortin (MC5); [125I]-NDP-αMSH): + (“+” indicates greater than 50% inhibition at 10 μM)
- A7 radioligand binding, percentage inhibition (Human μ-opioid (MOP); [3H]-Naloxone): − (“−” indicates less than 50% inhibition at 10 μM)
- A3 radioligand binding, percentage inhibition (Human Melanocortin (MC3); [125I]-NDP-αMSH): − (“−” indicates less than 50% inhibition at 10 μM)
- A8 radioligand binding, percentage inhibition (Human neurokinin (NK1); [125I]-Substance P): + (“+” indicates greater than 50% inhibition at 10 μM)
- A4 radioligand binding, percentage inhibition (Human Melanocortin (MC4); [125I]-NDP-αMSH): + (“+” indicates greater than 50% inhibition at 10 μM)

SMILES: COC[C@H]1OC(OCc2ccc(-c3ccccc3)cc2)[C@H](NC(=O)CCCNC(=N)N)[C@@H](OCc2cccc(O)c2)[C@@H]1O (stereo partly shown) [compound 132]
- A2 radioligand binding, percentage inhibition (Human κ-Opioid (KOP); [3H]-Diprenorphine): + (“+” indicates greater than 50% inhibition at 10 μM)
- A9 radioligand binding, percentage inhibition ([1]; [125I]-PYY): − (“−” indicates less than 50% inhibition at 10 μM)
- A10 radioligand binding, percentage inhibition (Human opioid (ORL1); [125I]-Nociceptin): − (“−” indicates less than 50% inhibition at 10 μM)
- A6 radioligand binding, percentage inhibition ([2]; [125I]-S36057): − (“−” indicates less than 50% inhibition at 10 μM)
- A1 radioligand binding, percentage inhibition (Human δ-opioid (DOP); [3H]-Bremazocine): − (“−” indicates less than 50% inhibition at 10 μM)
- A11 radioligand binding, percentage inhibition (Mouse urotensin (mUR2); [125I]-Urotensin II): − (“−” indicates less than 50% inhibition at 10 μM)
- A5 radioligand binding, percentage inhibition (Human melanocortin (MC5); [125I]-NDP-αMSH): − (“−” indicates less than 50% inhibition at 10 μM)
- A7 radioligand binding, percentage inhibition (Human μ-opioid (MOP); [3H]-Naloxone): + (“+” indicates greater than 50% inhibition at 10 μM)
- A3 radioligand binding, percentage inhibition (Human Melanocortin (MC3); [125I]-NDP-αMSH): − (“−” indicates less than 50% inhibition at 10 μM)
- A8 radioligand binding, percentage inhibition (Human neurokinin (NK1); [125I]-Substance P): − (“−” indicates less than 50% inhibition at 10 μM)
- A4 radioligand binding, percentage inhibition (Human Melanocortin (MC4); [125I]-NDP-αMSH): − (“−” indicates less than 50% inhibition at 10 μM)

SMILES: COC[C@H]1OC(OCc2ccc(-c3ccccc3)cc2)[C@H](NC(=O)CCCNC(=N)N)[C@@H](OCc2ccc(Cl)cc2)[C@@H]1O (stereo partly shown) [compound 13]
- A2 radioligand binding inhibition (Human κ-Opioid (KOP)): − (“−” indicates less than 50% inhibition at 10 μM)
- A9 radioligand binding inhibition [1]: − (“−” indicates less than 50% inhibition at 10 μM)
- A10 radioligand binding inhibition (Human opioid (ORL1)): − (“−” indicates less than 50% inhibition at 10 μM)
- A6 radioligand binding inhibition [2]: + (“+” indicates greater than 50% inhibition at 10 μM)
- A1 radioligand binding inhibition (Human δ-opioid (DOP)): − (“−” indicates less than 50% inhibition at 10 μM)
- A11 radioligand binding inhibition (Mouse urotensin (mUR2)): − (“−” indicates less than 50% inhibition at 10 μM)
- A5 radioligand binding inhibition (Human melanocortin (MC5)): + (“+” indicates greater than 50% inhibition at 10 μM)
- A7 radioligand binding inhibition (Human μ-opioid (MOP)): + (“+” indicates greater than 50% inhibition at 10 μM)
- A3 radioligand binding inhibition (Human Melanocortin (MC3)): − (“−” indicates less than 50% inhibition at 10 μM)
- A8 radioligand binding inhibition (Human neurokinin (NK1)): + (“+” indicates greater than 50% inhibition at 10 μM)
- A4 radioligand binding inhibition (Human Melanocortin (MC4)): − (“−” indicates less than 50% inhibition at 10 μM)

SMILES: NCCCC(=O)NC1C(OCc2ccc(Cl)cc2)OC(COCc2ccccc2)C(O)C1OCc1ccc(Cl)cc1 (single isomer, unassigned) [compound 492]
- A2: inhibition of radioligand binding, human κ-opioid (KOP) (Human κ-Opioid (KOP); [3H]-Diprenorphine): − (“−” indicates less than 50% inhibition at 10 μM)
- A9: inhibition of radioligand binding, human neuropeptide Y (NPY-Y1) ([1]; [125I]-PYY): − (“−” indicates less than 50% inhibition at 10 μM)
- A10: inhibition of radioligand binding, human opioid (ORL1) (Human opioid (ORL1); [125I]-Nociceptin): + (“+” indicates greater than 50% inhibition at 10 μM)
- A6: inhibition of radioligand binding, human melanin-concentrating hormone (MCH1) ([2]; [125I]-S36057, 10 µM): + (“+” indicates greater than 50% inhibition at 10 μM)
- A1: inhibition of radioligand binding, human δ-opioid (DOP) (Human δ-opioid (DOP); [3H]-Bremazocine): − (“−” indicates less than 50% inhibition at 10 μM)
- A11: inhibition of radioligand binding, mouse urotensin (mUR2) (Mouse urotensin (mUR2); [125I]-Urotensin II): − (“−” indicates less than 50% inhibition at 10 μM)
- A5: inhibition of radioligand binding, human melanocortin (MC5) (Human melanocortin (MC5); [125I]-NDP-αMSH, 10 µM): + (“+” indicates greater than 50% inhibition at 10 μM)
- A7: inhibition of radioligand binding, human μ-opioid (MOP) (Human μ-opioid (MOP); [3H]-Naloxone): − (“−” indicates less than 50% inhibition at 10 μM)
- A3: inhibition of radioligand binding, human melanocortin (MC3) (Human Melanocortin (MC3); [125I]-NDP-αMSH): − (“−” indicates less than 50% inhibition at 10 μM)
- A8: inhibition of radioligand binding, human neurokinin (NK1) (Human neurokinin (NK1); [125I]-Substance P): + (“+” indicates greater than 50% inhibition at 10 μM)
- A4: inhibition of radioligand binding, human melanocortin (MC4) (Human Melanocortin (MC4); [125I]-NDP-αMSH, 10 µM): + (“+” indicates greater than 50% inhibition at 10 μM)

SMILES: COC[C@H]1OC(OCc2ccc3ccccc3c2)[C@H](NC(=O)CNC(=N)N)[C@@H](OCc2ccc3ccccc3c2)[C@@H]1O (stereo partly shown) [compound 17]
- A2 radioligand binding inhibition (Human κ-Opioid (KOP)): − (“−” indicates less than 50% inhibition at 10 μM)
- A9 radioligand binding inhibition [1]: − (“−” indicates less than 50% inhibition at 10 μM)
- A10 radioligand binding inhibition (Human opioid (ORL1)): − (“−” indicates less than 50% inhibition at 10 μM)
- A6 radioligand binding inhibition [2]: + (“+” indicates greater than 50% inhibition at 10 μM)
- A1 radioligand binding inhibition (Human δ-opioid (DOP)): − (“−” indicates less than 50% inhibition at 10 μM)
- A11 radioligand binding inhibition (Mouse urotensin (mUR2)): − (“−” indicates less than 50% inhibition at 10 μM)
- A5 radioligand binding inhibition (Human melanocortin (MC5)): + (“+” indicates greater than 50% inhibition at 10 μM)
- A7 radioligand binding inhibition (Human μ-opioid (MOP)): + (“+” indicates greater than 50% inhibition at 10 μM)
- A3 radioligand binding inhibition (Human Melanocortin (MC3)): − (“−” indicates less than 50% inhibition at 10 μM)
- A8 radioligand binding inhibition (Human neurokinin (NK1)): + (“+” indicates greater than 50% inhibition at 10 μM)
- A4 radioligand binding inhibition (Human Melanocortin (MC4)): + (“+” indicates greater than 50% inhibition at 10 μM)

Reference: patent US20080009418A1, “Selective Inhibitors” (Alchemia LTD., priority 2004, published 2008)
